The NIST ThermoML archive (doi:10.1007/s10765-014-1730-1)

Settings: Vibrating tube method; for mass density: Liquid; for specific volume: Gas

F/C=C\C(F)(F)F [(Z)-1,3,3,3-tetrafluoro-1-propene]
Settings | mass density [kg/m3] | specific volume [m3/kg]
283.15 K, 19923 kPa | 1312.8 | –
283.15 K, 30988 kPa | 1335.2 | –
283.16 K, 188 kPa | 1262.2 | –
283.16 K, 714 kPa | 1263.9 | –
283.16 K, 1728 kPa | 1266.9 | –
283.16 K, 2742 kPa | 1270 | –
283.16 K, 3759 kPa | 1273 | –
283.16 K, 4785 kPa | 1275.9 | –
283.16 K, 5794 kPa | 1278.6 | –
283.16 K, 6808 kPa | 1281.4 | –
283.16 K, 7810 kPa | 1284.1 | –
283.16 K, 8829 kPa | 1286.8 | –
283.16 K, 9831 kPa | 1289.3 | –
283.16 K, 10842 kPa | 1291.8 | –
283.16 K, 11848 kPa | 1294.3 | –
283.16 K, 12862 kPa | 1296.7 | –
283.16 K, 13869 kPa | 1299.3 | –
283.16 K, 14880 kPa | 1301.5 | –
283.16 K, 15887 kPa | 1304 | –
283.16 K, 16901 kPa | 1306.2 | –
283.16 K, 17911 kPa | 1308.5 | –
283.16 K, 18920 kPa | 1310.8 | –
283.16 K, 20928 kPa | 1315.1 | –
283.16 K, 21929 kPa | 1317.3 | –
283.16 K, 22938 kPa | 1319.3 | –
283.16 K, 23940 kPa | 1321.4 | –
283.16 K, 24945 kPa | 1323.4 | –
283.16 K, 25950 kPa | 1325.4 | –
283.16 K, 26964 kPa | 1327.4 | –
283.16 K, 27969 kPa | 1329.6 | –
283.16 K, 28981 kPa | 1331.5 | –
283.16 K, 29981 kPa | 1333.4 | –
283.16 K, 32001 kPa | 1337.1 | –
283.16 K, 33010 kPa | 1339 | –
283.16 K, 34026 kPa | 1340.8 | –
293.14 K, 707 kPa | 1238 | –
293.14 K, 3747 kPa | 1248.2 | –
293.14 K, 6783 kPa | 1257.5 | –
293.14 K, 8789 kPa | 1263.5 | –
293.14 K, 21891 kPa | 1296.5 | –
293.14 K, 22907 kPa | 1298.7 | –
293.14 K, 23918 kPa | 1301 | –
293.14 K, 24927 kPa | 1303.2 | –
293.14 K, 31982 kPa | 1317.6 | –
293.15 K, 202 kPa | 1236.1 | –
293.15 K, 1711 kPa | 1241.3 | –
293.15 K, 2717 kPa | 1244.8 | –
293.15 K, 4772 kPa | 1251.4 | –
293.15 K, 5777 kPa | 1254.5 | –
293.15 K, 7789 kPa | 1260.4 | –
293.15 K, 9806 kPa | 1266.1 | –
293.15 K, 10808 kPa | 1269.1 | –
293.15 K, 11817 kPa | 1271.7 | –
293.15 K, 12827 kPa | 1274.3 | –
293.15 K, 13836 kPa | 1277 | –
293.15 K, 14850 kPa | 1279.6 | –
293.15 K, 15856 kPa | 1282.1 | –
293.15 K, 16856 kPa | 1284.7 | –
293.15 K, 17859 kPa | 1287 | –
293.15 K, 18869 kPa | 1289.6 | –
293.15 K, 19873 kPa | 1292 | –
293.15 K, 20882 kPa | 1294.3 | –
293.15 K, 25932 kPa | 1305.2 | –
293.15 K, 26941 kPa | 1307.2 | –
293.15 K, 27957 kPa | 1309.7 | –
293.15 K, 28963 kPa | 1311.6 | –
293.15 K, 29972 kPa | 1313.7 | –
293.15 K, 30977 kPa | 1315.7 | –
293.15 K, 32993 kPa | 1319.5 | –
293.15 K, 33996 kPa | 1321.6 | –
303.15 K, 82.1 kPa | – | 0.259
303.15 K, 113.7 kPa | – | 0.185
303.15 K, 184.2 kPa | – | 0.111
303.15 K, 190.7 kPa | – | 0.107
303.15 K, 1705 kPa | 1215.3 | –
303.15 K, 3735 kPa | 1222.8 | –
303.15 K, 4759 kPa | 1226.3 | –
303.15 K, 7774 kPa | 1236.5 | –
303.15 K, 8779 kPa | 1239.7 | –
303.15 K, 10782 kPa | 1245.9 | –
303.15 K, 12803 kPa | 1251.9 | –
303.15 K, 13813 kPa | 1254.8 | –
303.15 K, 14822 kPa | 1257.6 | –
303.15 K, 15833 kPa | 1260.3 | –
303.15 K, 16844 kPa | 1263 | –
303.15 K, 17858 kPa | 1265.7 | –
303.15 K, 18870 kPa | 1268.3 | –
303.15 K, 19882 kPa | 1270.9 | –
303.15 K, 20888 kPa | 1273.4 | –
303.15 K, 21903 kPa | 1275.9 | –
303.15 K, 22911 kPa | 1278.3 | –
303.15 K, 23920 kPa | 1280.7 | –
303.15 K, 24935 kPa | 1283 | –
303.15 K, 25951 kPa | 1285.4 | –
303.15 K, 26951 kPa | 1287.7 | –
303.15 K, 27967 kPa | 1289.9 | –
303.15 K, 28968 kPa | 1292.1 | –
303.15 K, 29985 kPa | 1294.3 | –
303.15 K, 30991 kPa | 1296.4 | –
303.15 K, 31993 kPa | 1298.6 | –
303.15 K, 32995 kPa | 1300.6 | –
303.15 K, 34000 kPa | 1302.7 | –
303.16 K, 217 kPa | 1209.4 | –
303.16 K, 692 kPa | 1211.4 | –
303.16 K, 2712 kPa | 1219.1 | –
303.16 K, 5769 kPa | 1229.9 | –
303.16 K, 6772 kPa | 1233.2 | –
303.16 K, 9780 kPa | 1242.9 | –
303.16 K, 11794 kPa | 1249 | –
308.15 K, 83.4 kPa | – | 0.259
308.15 K, 115.8 kPa | – | 0.185
308.15 K, 187.8 kPa | – | 0.111
308.15 K, 194.6 kPa | – | 0.107
308.15 K, 215.4 kPa | – | 0.095
313.15 K, 84.9 kPa | – | 0.259
313.15 K, 117.9 kPa | – | 0.185
313.15 K, 191.5 kPa | – | 0.111
313.15 K, 198.5 kPa | – | 0.107
313.15 K, 325 kPa | 1182 | –
313.15 K, 777 kPa | 1184 | –
313.15 K, 1789 kPa | 1188.5 | –
313.15 K, 2791 kPa | 1192.7 | –
313.15 K, 3819 kPa | 1196.9 | –
313.15 K, 4846 kPa | 1201.1 | –
313.15 K, 5847 kPa | 1204.9 | –
313.15 K, 6862 kPa | 1208.7 | –
313.15 K, 7865 kPa | 1212.3 | –
313.15 K, 8867 kPa | 1215.8 | –
313.15 K, 9876 kPa | 1219.3 | –
313.15 K, 10884 kPa | 1222.7 | –
313.15 K, 11896 kPa | 1226 | –
313.15 K, 12909 kPa | 1229.2 | –
313.15 K, 13913 kPa | 1232.4 | –
313.15 K, 14924 kPa | 1235.4 | –
313.15 K, 15924 kPa | 1238.4 | –
313.15 K, 16925 kPa | 1241.4 | –
313.15 K, 17931 kPa | 1244.2 | –
313.15 K, 18933 kPa | 1247 | –
313.15 K, 19934 kPa | 1249.8 | –
313.15 K, 20940 kPa | 1252.5 | –
313.15 K, 21945 kPa | 1255.1 | –
313.15 K, 22953 kPa | 1257.8 | –
313.15 K, 23961 kPa | 1260.4 | –
313.15 K, 24962 kPa | 1262.9 | –
313.15 K, 25963 kPa | 1265.3 | –
313.15 K, 26966 kPa | 1267.7 | –
313.15 K, 27968 kPa | 1270.1 | –
313.15 K, 28969 kPa | 1272.5 | –
313.15 K, 29976 kPa | 1274.8 | –
313.15 K, 30978 kPa | 1277 | –
313.15 K, 31986 kPa | 1279.3 | –
313.15 K, 32992 kPa | 1281.6 | –
313.15 K, 34000 kPa | 1283.8 | –
313.16 K, 219.8 kPa | – | 0.095
315.15 K, 270.7 kPa | – | 0.076
318.15 K, 86.3 kPa | – | 0.26
318.15 K, 120 kPa | – | 0.185
318.15 K, 195.2 kPa | – | 0.111
318.15 K, 202.2 kPa | – | 0.107
318.15 K, 224 kPa | – | 0.095
320.15 K, 276.3 kPa | – | 0.076
323.14 K, 4763 kPa | 1174.1 | –
323.14 K, 16843 kPa | 1218.6 | –
323.14 K, 21889 kPa | 1233.7 | –
323.14 K, 29946 kPa | 1254.9 | –
323.14 K, 30956 kPa | 1257.3 | –
323.15 K, 87.8 kPa | – | 0.26
323.15 K, 122.1 kPa | – | 0.185
323.15 K, 198.9 kPa | – | 0.111
323.15 K, 206 kPa | – | 0.107
323.15 K, 228.3 kPa | – | 0.095
323.15 K, 363.2 kPa | – | 0.057
323.15 K, 392 kPa | 1153.1 | –
323.15 K, 686 kPa | 1154.6 | –
323.15 K, 1702 kPa | 1159.8 | –
323.15 K, 2712 kPa | 1164.7 | –
323.15 K, 3731 kPa | 1169.5 | –
323.15 K, 5778 kPa | 1178.4 | –
323.15 K, 6786 kPa | 1182.7 | –
323.15 K, 7786 kPa | 1186.7 | –
323.15 K, 8786 kPa | 1190.6 | –
323.15 K, 9791 kPa | 1194.4 | –
323.15 K, 10796 kPa | 1198.2 | –
323.15 K, 11803 kPa | 1201.8 | –
323.15 K, 12805 kPa | 1205.3 | –
323.15 K, 13812 kPa | 1208.8 | –
323.15 K, 14822 kPa | 1212.1 | –
323.15 K, 15831 kPa | 1215.4 | –
323.15 K, 17849 kPa | 1221.7 | –
323.15 K, 18857 kPa | 1224.9 | –
323.15 K, 19866 kPa | 1227.9 | –
323.15 K, 20875 kPa | 1230.8 | –
323.15 K, 22900 kPa | 1236.5 | –
323.15 K, 23908 kPa | 1239.3 | –
323.15 K, 24908 kPa | 1242 | –
323.15 K, 25914 kPa | 1244.6 | –
323.15 K, 26926 kPa | 1247.3 | –
323.15 K, 27933 kPa | 1249.8 | –
323.15 K, 28945 kPa | 1252.4 | –
323.15 K, 31966 kPa | 1259.8 | –
323.15 K, 32979 kPa | 1262.2 | –
323.15 K, 33992 kPa | 1264.5 | –
325.15 K, 281.9 kPa | – | 0.076
328.15 K, 89.2 kPa | – | 0.26
328.15 K, 124.1 kPa | – | 0.185
